Several values for one entry are separate records, joined by “and”; a condition that tells them apart may be missing. Identical values can stand only once. Like-named read-outs stand apart in the source and are kept apart here.
## CC(C)CC(=O)O [isovaleric acid]
2 μL 0.08% isovaleric acid, all graders (Table 11)
  BI rank Ave: 1.0
Stripped swatch with 2 μL 0.08% isovaleric acid
  BI rank by individual expert grader: 0.5 and 2.0 and 1.0
Stripped swatch with 5 μL 0.08% isovaleric acid
  BI rank by individual expert grader: 2.0 and 2.5
Stripped swatch with 20 μL 0.08% isovaleric acid
  BI rank by individual expert grader: 3.0 and 2.5
